{"source": "the PolyMetriX glass transition set", "note": "± gives the standard deviation of the reports.", "data": [{"units": {"glass transition temperature": "°C"}, "values": [{"smiles": "*CCOc1ccc(C(=O)OC(=O)c2ccc(O*)cc2)cc1", "note": "(repeat unit)", "glass transition temperature": 45.00}, {"smiles": "*c1ccc(Oc2ccccc2Oc2ccc(-n3c(=O)c4cc5c(=O)n(*)c(=O)c5cc4c3=O)cc2)cc1", "note": "(repeat unit)", "glass transition temperature": 313.00}, {"smiles": "*CC(*)C(=O)OCCN(CC)c1ccc(/N=N/c2ccc([N+](=O)[O-])cc2Cl)cc1", "note": "(repeat unit)", "glass transition temperature": 87.00}, {"smiles": "*OP(=O)(Oc1ccc(C(C)(C)c2ccc(*)cc2)cc1)Oc1c(Cl)c(Cl)c(Cl)c(Cl)c1Cl", "note": "(repeat unit)", "glass transition temperature": 130.00}, {"smiles": "*CCCC(*)(C)C", "note": "(repeat unit)", "glass transition temperature": -20.00}, {"smiles": "*Oc1c(C(C)C)cc(*)cc1C(C)C", "note": "(repeat unit)", "glass transition temperature": 152.40}, {"smiles": "*Nc1ccc(Cc2ccc(NC(=O)NCCCCCCNC(*)=O)cc2)cc1", "note": "(repeat unit)", "glass transition temperature": 78.00}, {"smiles": "*CC(CS(=O)(=O)CCCC)O*", "note": "(repeat unit)", "glass transition temperature": 37.00}, {"smiles": "*Oc1c(C)cc(*)cc1C(C)CCC", "note": "(repeat unit)", "glass transition temperature": 100.00}, {"smiles": "*C(=O)c1ccc2c(c1)C(=O)N(c1ccc(Oc3ccc(Oc4ccc(N5C(=O)c6ccc(*)cc6C5=O)cc4C(F)(F)F)cc3)cc1)C2=O", "note": "(repeat unit)", "glass transition temperature": 237.10}, {"smiles": "*CCCCCCCCNC(=O)c1ccc(C(=O)N*)c(Sc2ccccc2)c1", "note": "(repeat unit)", "glass transition temperature": 110.00}, {"smiles": "*Oc1ccc(CC(C#N)(Cc2ccc(*)cc2)c2ccccc2)cc1", "note": "(repeat unit)", "glass transition temperature": 143.00}, {"smiles": "*Oc1ccc(C2(c3ccc(Oc4ccc(C(=O)c5cccc(C(=O)c6ccc(*)cc6)c5)cc4)c(C)c3)c3ccccc3-c3ccccc32)cc1C", "note": "(repeat unit)", "glass transition temperature": 217.00}, {"smiles": "*Nc1cccc(NC(=O)CCCCCCCCC(*)=O)c1", "note": "(repeat unit)", "glass transition temperature": 110.00}, {"smiles": "*/C=C/CCC*", "note": "(repeat unit) [Poly(1-pentenylene)]", "glass transition temperature": "-100.08 ± 7"}, {"smiles": "*CC(*)C(=O)OCCCSCC", "note": "(repeat unit)", "glass transition temperature": -76.00}, {"smiles": "*c1ccc(-c2ccc(-c3ccc(-c4ccc(-c5ccc6c(c5)C(=O)N(c5ccc(Oc7ccc(N8C(=O)c9ccc(*)cc9C8=O)cc7)cc5)C6=O)cc4)cc3)cc2)cc1", "note": "(repeat unit)", "glass transition temperature": 244.00}, {"smiles": "*Oc1ccc(NC(=O)CCCCC(=O)Nc2ccc(OC3COC4C(*)COC34)cc2)cc1", "note": "(repeat unit)", "glass transition temperature": 150.00}, {"smiles": "*c1ccc(-c2sc(-c3ccc(-c4cc(CCCCCCCC)c(*)s4)cc3)cc2CCCCCCCC)cc1", "note": "(repeat unit)", "glass transition temperature": -4.00}, {"smiles": "*C(=O)c1ccc(C(C)(CC)c2ccc(C(=O)N3CCN(*)CC3)cc2)cc1", "note": "(repeat unit)", "glass transition temperature": 232.00}, {"smiles": "*Oc1c(Cl)cc(C2(c3cc(Cl)c(OC(*)=O)c(Cl)c3)CC3CCC2C3)cc1Cl", "note": "(repeat unit)", "glass transition temperature": 290.00}, {"smiles": "*Oc1ccc(S(=O)(=O)c2ccc(Oc3ccc(C4(c5ccc(*)cc5)CCCC4)cc3)cc2)cc1", "note": "(repeat unit)", "glass transition temperature": 230.00}, {"smiles": "*C1C(*)C2CC1C(C(=O)OCC13CC4CC(CC(C4)C1)C3)C2C(=O)OCC12CC3CC(CC(C3)C1)C2", "note": "(repeat unit)", "glass transition temperature": 328.00}, {"smiles": "*CC(*)(C)C(=O)OCCCCCCCCCCOc1ccc(C#Cc2cc(C)c(/C=C/c3ccncc3)cc2C)cc1", "note": "(repeat unit)", "glass transition temperature": 65.40}, {"smiles": "*c1ccc(Cc2ccc(NC(=O)c3ccc(Oc4cccc5c4C(=O)N(*)C5=O)cc3)cc2)cc1", "note": "(repeat unit)", "glass transition temperature": 258.00}, {"smiles": "*CC1CCC(COC(=O)C2CCC(C(=O)O*)CC2)CC1", "note": "(repeat unit)", "glass transition temperature": 77.00}, {"smiles": "*c1ccc2c(c1)Cc1cc(-n3c(=O)c4cc5c(=O)n(*)c(=O)c5cc4c3=O)ccc1-2", "note": "(repeat unit)", "glass transition temperature": 322.00}, {"smiles": "*Oc1cccc2ccc(Oc3ccc(NC(=O)c4ccc(Oc5ccc(Oc6ccc(C(=O)Nc7ccc(*)cc7)cc6)cc5)cc4)cc3)cc12", "note": "(repeat unit)", "glass transition temperature": 224.00}, {"smiles": "*CCOC(=O)c1ccc(/C(C#N)=C(\\c2ccc(OC)cc2)N2CCC(*)CC2)cc1", "note": "(repeat unit)", "glass transition temperature": 167.00}, {"smiles": "*CC1CCC(COP(=O)(/N=N/c2ccc(C(=O)c3ccc(/N=N/P(=O)(O*)OC)cc3)cc2)OC)CC1", "note": "(repeat unit)", "glass transition temperature": 52.00}, {"smiles": "*CC(*)(C)C(=O)OCC1(C)COC(C)(C)OC1", "note": "(repeat unit)", "glass transition temperature": 108.00}, {"smiles": "*c1ccc(OC(=O)c2ccc([Si](C)(C)c3ccc(C(=O)Oc4ccc(C5(*)c6ccccc6C(=O)N5c5ccccc5)cc4)cc3)cc2)cc1", "note": "(repeat unit)", "glass transition temperature": 255.00}, {"smiles": "*CC(*)OCCCCCCCCCCCOc1ccc(C(=O)Oc2ccc(C#N)cc2)cc1", "note": "(repeat unit)", "glass transition temperature": 37.00}, {"smiles": "*CCCCCCCCCOC(=O)c1ccc(C(=O)O*)cc1", "note": "(repeat unit)", "glass transition temperature": 35.00}, {"smiles": "*c1cccc(N2C(=O)c3ccc(Oc4ccc(C(C)(C)c5ccc(Oc6ccc7c(c6)C(=O)N(*)C7=O)cc5)cc4)cc3C2=O)c1", "note": "(repeat unit)", "glass transition temperature": 217.50}, {"smiles": "*CCCCOC(=O)NCCCCCCNC(=O)O*", "note": "(repeat unit)", "glass transition temperature": 33.50}, {"smiles": "*c1ccc2c(c1)Sc1cc(-c3sc(/C=C/C4=CC(=C(C#N)C#N)C=C(/C=C/c5sc(*)c(CCCCCC)c5CCCCCC)O4)c(CCCCCC)c3CCCCCC)ccc1N2CCCCCC", "note": "(repeat unit)", "glass transition temperature": 130.00}, {"smiles": "*CCCCCCCCCCC(=O)O*", "note": "(repeat unit)", "glass transition temperature": -46.0}, {"smiles": "*C1C2CC(C(=O)OCCc3ccc(N(c4ccccc4)c4cccc(C)c4)cc3)C(C2)C1*", "note": "(repeat unit)", "glass transition temperature": 305.00}, {"smiles": "*c1ccc(/C=C/c2cc(OCCCCCCCC)c(/C=C/c3ccc(N(*)c4ccccc4)cc3)cc2OCCCCCCCC)cc1", "note": "(repeat unit)", "glass transition temperature": 74.00}, {"smiles": "*Oc1ccc(/N=C/C=N/c2ccc(OC(=O)NCCCCCCNC(*)=O)cc2)cc1", "note": "(repeat unit)", "glass transition temperature": 80.00}, {"smiles": "*c1ccc(C(C)(C)c2ccc(N3C(=O)c4ccc(Oc5ccc6ccc(Oc7ccc8c(c7)C(=O)N(*)C8=O)cc6c5)cc4C3=O)cc2)cc1", "note": "(repeat unit)", "glass transition temperature": 247.00}, {"smiles": "*c1ccc(-c2ccc(N3C(=O)c4ccc(Oc5c(C)cc(C(C)(C)c6cc(C)c(Oc7ccc8c(c7)C(=O)N(*)C8=O)c(C)c6)cc5C)cc4C3=O)cc2C(F)(F)F)c(C(F)(F)F)c1", "note": "(repeat unit)", "glass transition temperature": 262.00}, {"smiles": "*Oc1cccc(Oc2cccc(*)n2)c1", "note": "(repeat unit)", "glass transition temperature": 82.00}, {"smiles": "*c1cccc(N2C(=O)c3cccc(Oc4cccc(Oc5cccc6c5C(=O)N(*)C6=O)c4)c3C2=O)c1", "note": "(repeat unit)", "glass transition temperature": 241.00}, {"smiles": "*C(=O)c1ccc2c(c1)C(=O)N(c1ccc(C(=O)c3ccc(Cc4ccc(C(=O)c5ccc(N6C(=O)c7ccc(*)cc7C6=O)cc5)cc4)cc3)cc1)C2=O", "note": "(repeat unit)", "glass transition temperature": 285.50}, {"smiles": "*CCCCCCOC(=O)c1cc(OCCCCCCOc2ccc(/N=N/c3ccc(C#N)cc3)cc2)cc(C(=O)OCCCCCCN2C(=O)c3ccc(-c4ccc5c(c4)C(=O)N(*)C5=O)cc3C2=O)c1", "note": "(repeat unit)", "glass transition temperature": 93.00}, {"smiles": "*c1cccc(S(=O)(=O)c2cccc(N3C(=O)c4ccc(Oc5ccc6c(c5)C(=O)N(*)C6=O)cc4C3=O)c2)c1", "note": "(repeat unit)", "glass transition temperature": "246.00 ± 4.7"}, {"smiles": "*CCCCCCOC(=O)NCC(F)(F)C(F)(F)C(F)(F)C(F)(F)CNC(=O)O*", "note": "(repeat unit)", "glass transition temperature": 5.00}, {"smiles": "*CC(OC)C1C(=O)N(c2ccc(N(C)C)cc2)C(=O)C1*", "note": "(repeat unit)", "glass transition temperature": 221.00}, {"smiles": "*CCCCCCCCCCC(=O)N*", "note": "(repeat unit)", "glass transition temperature": 46.00}, {"smiles": "*OP(=O)(Oc1ccccc1)OC(CCl)COc1ccc(S(=O)(=O)c2ccc(OCC(*)CCl)cc2)cc1", "note": "(repeat unit)", "glass transition temperature": 48.00}, {"smiles": "*Oc1ccc(Oc2ccc(OC(=O)c3ccc(C(c4ccc(C(*)=O)cc4)(C(F)(F)F)C(F)(F)F)cc3)cc2)cc1", "note": "(repeat unit)", "glass transition temperature": 215.00}, {"smiles": "*C(=O)Nc1ccc(Sc2ccc(NC(=O)c3ccc4c(c3)C(=O)N(c3ccc(Oc5ccc(N6C(=O)c7ccc(*)cc7C6=O)cc5)cc3)C4=O)cc2)cc1", "note": "(repeat unit)", "glass transition temperature": 284.00}, {"smiles": "*c1ccc(-c2ccc3c(c2)C(CCCCCCBr)(CCCCCCBr)c2cc(*)ccc2-3)cc1", "note": "(repeat unit)", "glass transition temperature": 122.00}, {"smiles": "*Oc1ccc(CC(NC(=O)Cc2ccc(OC(=O)CC(C)CCC(*)=O)cc2)C(=O)OCCCCCCCC)cc1", "note": "(repeat unit)", "glass transition temperature": 30.00}, {"smiles": "*CC(*)c1ccc(C)c(C)c1", "note": "(repeat unit) [Poly(3,4-dimethyl styrene) ]", "glass transition temperature": "111 ± 2.4"}, {"smiles": "*C(=O)c1ccc2c(c1)C(=O)N(c1c(-c3ccccc3)cc(-c3ccc(-c4cc(-c5ccccc5)c(N5C(=O)c6ccc(*)cc6C5=O)c(-c5ccccc5)c4)cc3)cc1-c1ccccc1)C2=O", "note": "(repeat unit)", "glass transition temperature": 265.00}, {"smiles": "*CC(*)c1ccc(C(=O)CCN2CCOCC2)cc1", "note": "(repeat unit)", "glass transition temperature": 41.00}, {"smiles": "*CCC[Si](*)(c1ccccc1)c1ccc(N(C)C)cc1", "note": "(repeat unit)", "glass transition temperature": 52.00}, {"smiles": "*Nc1cccc(NC(=O)Cc2cc(CC(*)=O)c(C)cc2C)c1", "note": "(repeat unit)", "glass transition temperature": 222.00}, {"smiles": "*c1ccc2c(c1)C(=O)N(c1cc(Br)c(Oc3c(Br)cc(N4C(=O)c5ccc(C(*)(C(F)(F)F)C(F)(F)F)cc5C4=O)cc3Br)c(Br)c1)C2=O", "note": "(repeat unit)", "glass transition temperature": 303.00}, {"smiles": "*c1ccc(C(C)(C)c2ccc(C(C)(C)c3ccc(N4C(=O)c5ccc(Oc6cccc7c(Oc8ccc9c(c8)C(=O)N(*)C9=O)cccc67)cc5C4=O)cc3)cc2)cc1", "note": "(repeat unit)", "glass transition temperature": 253.00}, {"smiles": "*c1ccc(Oc2ccc(N3C(=O)C(Cl)=C(Oc4ccc(C(C)(C)c5ccc(OC6=C(Cl)C(=O)N(*)C6=O)cc5)cc4)C3=O)cc2)cc1", "note": "(repeat unit)", "glass transition temperature": 175.00}, {"smiles": "*CC(*)(CC(=O)OCCCC1CCCCC1)C(=O)OCCCC1CCCCC1", "note": "(repeat unit)", "glass transition temperature": 7.00}, {"smiles": "*Oc1ccc(CC(NC(=O)CCc2ccc(OC(=O)CCCCCCCCC(*)=O)cc2)C(=O)OCC(C)C)cc1", "note": "(repeat unit)", "glass transition temperature": 33.00}]}]}
